Measured values as given in US20250059604A1, “BIOMARKERS AND METHODS RELATED TO FRAGILE X SYNDROME” (University of Massachusetts, priority 2021, published 2025).
Where “and” joins values, the source holds several entries; their conditions need not be identical. Equal values may be shown once. Read-outs that look alike come from different tables or passages of the source.

Legend:
[1] = tested on: FMR1 transcripts (total, FMR1-205, FMR1-217) in FXS-NSC; conditions: FXS iPSC-derived NSCs, re-analyzed from RNA-seq data of Vershkov et al., cited from earlier work
[2] = tested on: FMRP; assay: 5-AzadC treatment of FXS lymphoblast cell lines, western blot of FMRP relative to GAPDH; assay type: cell-based, human; conditions: FXS1 and FXS2 LCLs, 5-AzadC vs DMSO
Protocol: For each cell culture, 30×10^5 cells/ml were added to a final volume of 20 ml media (RPMI1640 medium (Sigma-Aldrich) supplemented with 15% fetal bovine serum (FBS) and 2.5% L-glutamine at 37° C. with 5% C02) per T25 flask. 5-Aza-2′-deoxycytidine (5-AzadC) (Sigma-Aldrich, A3656) was added to the cell cultures (final concentration 1 μM) for 7 consecutive days. A 2 mM stock of 5-AzadC was made in DMSO. For each cell line, two independent treatments were performed (n=2). For the no treatment controls for each cell line, DMSO was added to the flasks. […]
Cells were homogenized at 4° C. in RIPA buffer, with incubation on ice for 10 minutes and dissociation by pipetting. […] Protein concentration was determined using BCA reagent. Proteins ([…]) were diluted in SDS-bromophenol blue reducing buffer with 40 mM DTT and analyzed using western blotting with the following antibodies: FMRP (Millipore, mAb2160, 1:1,000), FMRP (Abcam, ab17722, 1:1,000) and GAPDH (14C10, Cell Signaling Technology, mAb 2118, 1:2,000), diluted in 1× TBST with 5% non-fat milk. […]
(§1) DNA methylation of the CpG island upstream of the FMR1 gene promoter in FXS individuals (MFM, Methylated full mutation) contributes to transcriptional silencing of the locus and loss of FMRP. […] Next, FXS1 and FXS2 cell lines were treated with the 5-AzadC and then measured FMR1 RNA and FMRP levels. […]

[3] = tested on: FMR1 RNA (full-length FMR1 and FMR1-217) in FXS1 and FXS2 LCLs; assay: 5-AzadC treatment of FXS lymphoblast cell lines, RT-qPCR of full-length FMR1 and FMR1-217 RNA relative to GAPDH; assay type: cell-based, human; conditions: 1 μM, seven days, RT-qPCR normalized to GAPDH
Protocol: One μg of total RNA was primed with oligo(dT)20 to generate cDNA with a QuantiTect cDNA synthesis kit (Qiagen, #205311) using random hexamers. qPCR was performed using the iTaq™ Universal SYBR® Green Supermix (BIO-RAD #1725122) on a QuantStudio 3 qPCR machine in duplicate.
Lymphoblast cell lines (LCL) were obtained from Coriell Institute from two FXS individuals (GM07365 (FXS1), GM06897 (FXS2)) and two typically developing control males (GM07174 (WT3), GM06890 (WT4)). Cells were cultured in RPMI 1640 medium (Sigma-Aldrich), supplemented with 15% fetal bovine serum (FBS) and 2.5% L-glutamine at 37° C. with 5% CO2 in T25 flasks.
For each cell culture, 30×10^5 cells/ml were added to a final volume of 20 ml media (RPMI1640 medium (Sigma-Aldrich) supplemented with 15% fetal bovine serum (FBS) and 2.5% L-glutamine at 37° C. with 5% C02) per T25 flask. 5-Aza-2′-deoxycytidine (5-AzadC) (Sigma-Aldrich, A3656) was added to the cell cultures (final concentration 1 μM) for 7 consecutive days. A 2 mM stock of 5-AzadC was made in DMSO. For each cell line, two independent treatments were performed (n=2). For the no treatment controls for each cell line, DMSO was added to the flasks. For samples with both 5-AzadC and ASO treatment, 80 nM or 160 nM ASOs or vehicle were added on Day 1 and either 5-AzadC or DMSO was added each day from Day 2 up to Day 9 at a final concentration of 1 μM. On Day 9 the cells were collected in 1× phosphate buffered saline to proceed with RNA extraction or Western blotting.
as §1, with “FMRP. FMR1 transcription can be reactivated by treatment with the nucleoside analogue 5-AzadC (5-aza-2′-deoxycytidine), which inhibits DNA methylation (Tabolacci et al., 2016b, 2016a).” for “FMRP.”

[4] = FXS1 LCL (GM07365, fully methylated)

## Nc1ncn([C@H]2C[C@H](O)[C@@H](CO)O2)c(=O)n1 [5-AzadC, 5-Aza-2′-deoxycytidine]
[1]; biologic duplicates
  FMR1 (Total) reads: 9.9 TPM and 6.1 TPM
  FMR1-217 reads: 6.9 TPM and 3.9 TPM
[1]
  FMR1-217 expression (RNA-seq reads), in words: strong FMR1-217 expression was observed only in the 5-AzadC-treated cells
  total FMR1 and FMR1-205 expression (RNA-seq reads), in words: strong total FMR1 and FMR1-205 expression
[1]; listed as 5-azadC
  FMR1-217 expression (RNA-seq reads), in words: FMR1-217 reads are detected only in the 5-azadC-treated samples
[2]
  FMRP level (FMRP/GAPDH, western blot): In neither cell line did 5-AzadC treatment induce an increase in FMRP
[3]; [4]
  FMR1-217 RNA relative to DMSO-treated cells: significant increases
  full-length FMR1 RNA relative to DMSO-treated cells: significant increases
[3]; FXS2 LCL (GM06897, partially methylated)
  full-length FMR1 and FMR1-217 RNA relative to DMSO-treated cells: increase of only full-length FMR1 RNA
